pIC50: −log10 of the molar value.
Molecular target: Pyruvate Dehydrogenase Kinase 3 (PDK3) (Homo sapiens, UniProt Q15120)
Assay: BIOMOL Green ATPase assay with purified PDK3
Type: biochemical

Sequence of Pyruvate Dehydrogenase Kinase 3 (PDK3) (Q15120 whole entry): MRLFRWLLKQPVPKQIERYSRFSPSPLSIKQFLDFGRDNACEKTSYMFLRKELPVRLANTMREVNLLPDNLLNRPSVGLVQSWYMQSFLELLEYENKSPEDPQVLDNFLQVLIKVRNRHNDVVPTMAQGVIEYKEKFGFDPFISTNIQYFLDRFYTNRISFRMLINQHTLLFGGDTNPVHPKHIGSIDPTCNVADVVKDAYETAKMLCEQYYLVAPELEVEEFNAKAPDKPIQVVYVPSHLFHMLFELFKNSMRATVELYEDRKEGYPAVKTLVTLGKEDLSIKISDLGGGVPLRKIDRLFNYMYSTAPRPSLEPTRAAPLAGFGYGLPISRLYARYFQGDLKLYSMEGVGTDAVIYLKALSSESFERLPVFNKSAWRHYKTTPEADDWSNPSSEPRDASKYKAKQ

## Cc1ccc(O)cc1 [p-C, 4-methylphenol]
  pIC50: 5.45

— paper PMC12612088 (Scientific Reports, 2025)
